Laboratory results: patent publication US8303907B2, “Biosensors, and method and kits for using same” (priority 2002, dated 2012)
Values after ≈ are worked out from the molar mass of the structure shown. Like-named read-outs stand apart in the source and are kept apart here. Each block holds one compound with its values, some of them ahead of it.

Columns and labels:
[1] = system: stabilised thylakoid membranes; test: Inhibition of photosynthetic efficiency of stabilised thylakoid membranes measured by fluorescence (F2-F1)/F2; type: biochemical, spinach
Description: In a specific embodiment, a fluorometer continuously illuminates weakly the photosynthetic biological material with a light emitting diode (LED) emitting light at a wavelength of 475 or at 660 nm. Better results were obtained with the 475 nm wavelength. In order to obtain a higher sensitivity for measuring the photosynthetic response to toxic molecules, the intensity of the low excitation light was adjusted so as to obtain a F1 fluorescence level slightly higher than F0.
Fluorescence measured 2 sec after turning on one LED is F1. Three additional LEDs are then turned on so as to induce actinic illumination F2. Dispersion of LEDs is illustrated in FIG. 1. Light beams are oriented so as to form together a point of convergence precisely at the level where the photodiode is read. After a specific time, selected according to the nature of the thylakoid membranes used (eg. source of thylakoids, etc.) (Table 1), of the background noise and of the level of sensitivity sought, the F2 fluorescence is measured. To determine F1 and F2, the fluorometer measures wavelengths higher than 650 nm when the illumination is at 475 nm, and higher than 700 nm when illumination is at 660 nm.
The photosynthetic efficiency is determined with the following formula (F2−F1)/F2. Preferably, the photosynthetic efficiency of the stabilised thylakoids is 0.8±0.1. Any molecule affecting the photosystems modifies either F1 or F2 which modification necessarily disrupts (increases or decreases) the photosynthetic efficiency. The inhibition curve of a particular molecule is determined by calculating the activity of the photosystems in the absence of the molecule and in the presence of the molecule and comparing both efficiency as follows as described in Conrad 1993:
Without inhibitor (wi): efficiency(wi)=(F2(wi)−F1(wi))/F2(wi) With inhibitor: Relative photosynthetic efficiency(sample)=(F2(sample)−F1(sample))/F2(wi) Percentage efficiency: efficiency (%)=(efficiency(sample)×100)/efficiency(wi) Percentage inhibition: Inhibition (%)=100−efficiency (%)
The individual test tubes (100 μL lyophilised thylakoid membranes) were resuspended in 2 mL of water or tested samples. The concentrated batch of test tubes was resuspended in water, in Buffer 1 (HEPES-NaOH 50 mM pH 7.5 buffer containing sucrose 330 mM, MgCl2 20 mM, NH4Cl 10 mM, PEG 4000 4% (p/v)); or in Buffer 2 (phosphate buffer 0.1 M pH 6.5 containing sucrose 330 mM, NH4Cl 10 mM, MgCl2 20 mM, EDTA 10 mM, PEG 4000 4% (p/v)). A combination of buffered solutions 1 and 2 may also be used. […] These different buffers rs produce different results in the detection sensitivity (see Table 3 above). The final volume obtained depends on the quantity of lyophilised membranes used (2.5 mL for 25 tests, 5 mL for 50 tests).
Before use, the tubes containing stabilised thylakoid membranes were retrieved from storage. If they were stored in the freezer or the refrigerator, they were tempered 30 minutes at room temperature and in the dark. Two milliliters of fluid samples and the required volume of MgCl2 mother solution to get 0-10 mM MgCl2 (depending on tested samples) were added to 100 μL of the thylakoids membranes formulation at a concentration of 5 μg/mL. The tubes are then shook by inversion for 2 min. […]

[2] = system: Chemically immobilised thylakoids; settings: chemically immobilised thylakoids (electrochemistry), Laberge (1999); cited from earlier work
[3] = system: Physically immobilised thylakoids; settings: physically immobilised thylakoids (electrochemistry), Laberge (2000); cited from earlier work
PSII [4] = target: T1, PSII (Thermosynechococcus vestitus, UniProt P0A444); settings: PSII Clark electrode (amperometry), Koblizek (2002), cited from earlier work
algaes native [5] = settings: algaes native (fluorescence), Jay (1997); cited from earlier work
algaes native [6] = settings: algaes native (fluorescence), Conrad (1993); cited from earlier work
PSII [7] = target: T1, PSII; settings: cited from earlier work
[8] = Buffer 1 + 5 mM MgCl2 (in cuvette)
[9] = membranes resuspended in Buffer 1
[10] = membranes resuspended in Buffer 2
[11] = stabilised thylakoid membranes of the present invention (fluorescence)

Structure (SMILES): CCNc1nc(Cl)nc(NC(C)C)n1 [Atrazine]
Inhibition (%) ([1]; Biological apple juice, atrazine 0.01 μg/mL): 23%
Inhibition (%) ([1]; Biological apple juice, atrazine 0.1 μg/mL): 61%
Inhibition (%) ([1]; Biological apple juice, atrazine 4 μg/mL): 71%
IC50 [1, 8]: 0.04 mg/L
Threshold [1, 8]: 0.001 mg/L
Inhibition (%) ([1]; Commercial apple juice (clear), pH 7, gravimetric filtration, atrazine 0.01 μg/mL): 15%
Inhibition (%) ([1]; Commercial apple juice (clear), pH 7, gravimetric filtration, atrazine 0.1 μg/mL): 60%
Inhibition (%) ([1]; Commercial apple juice (clear), pH 7, gravimetric filtration, atrazine 4 μg/mL): 74%
Inhibition (%) ([1]; Commercial apple juice (with pulp), pH 7, gravimetric filtration, atrazine 0.01 μg/mL): 23%
Inhibition (%) ([1]; Commercial apple juice (with pulp), pH 7, gravimetric filtration, atrazine 0.1 μg/mL): 58%
Inhibition (%) ([1]; Commercial apple juice (with pulp), pH 7, gravimetric filtration, atrazine 4 μg/mL): 65%
Inhibition (%) ([1]; Commercial apple juice, pH adjusted at 7, atrazine 0.01 μg/mL): 11%
Inhibition (%) ([1]; Commercial apple juice, pH adjusted at 7, atrazine 0.1 μg/mL): 61%
Inhibition (%) ([1]; Commercial apple juice, pH adjusted at 7, atrazine 4 μg/mL): 84%
Inhibition (%) ([1]; Water, atrazine 0.01 μg/mL): 16%
Inhibition (%) ([1]; Water, atrazine 0.1 μg/mL): 60%
Inhibition (%) ([1]; Water, atrazine 4 μg/mL): 80%
% effect ([1]; atrazine 0.001 mg/L): 4.2%
% effect ([1]; atrazine 0.004 mg/L): 14.9%
% effect ([1]; atrazine 0.04 mg/L): 55.3%
% effect ([1]; atrazine 0.1 mg/L): 69.4%
IC50 [1, 9]: 0.13 mg/L
Threshold [1, 9]: 0.002 mg/L
IC50 [1, 10]: 0.33 mg/L
Threshold [1, 10]: 0.002 mg/L
calculated inhibition ([1]; sample with initial concentration of 4 mg/L of atrazine): 64.8%
detection threshold ([1]; some of the thylakoid membranes preparations): 1 ppb
IC50 [1, 11]: 40 mg/L
Threshold [1, 11]: 0.001 mg/L
IC50 [2]: 0.33 mg/mL (≈ 1530 µM)
Threshold [2]: 0.01 to 0.05 mg/L
IC50 [3]: 0.28 mg/mL (≈ 1300 µM)
IC50 (PSII [4]): 301 µM
Threshold (PSII [4]): 0.0004 mg/L
IC50 (algaes native [5]): 0.062 mg/mL (≈ 287 µM)
Threshold (algaes native [5]): 0.009 mg/L
IC50 (algaes native [6]): 0.15 mg/mL (≈ 695 µM)
IC50 (PSII [7]): 88.1 µM

Structure (SMILES): CC(C)N1C(=O)c2ccccc2NS1(=O)=O [Bentazon]
IC50 [1, 8]: >4 mg/L
Threshold [1, 8]: >4 mg/L
IC50 [1, 9]: >4 mg/L
Threshold [1, 9]: 2 mg/L
IC50 [1, 10]: >4 mg/L
Threshold [1, 10]: 1.22 mg/L

Structure (SMILES): N#Cc1cc(Br)c(O)c(Br)c1 [Bromoxynil]
IC50 [1, 8]: >0.1 mg/L
Threshold [1, 8]: >0.1 mg/L
IC50 [1, 9]: 0.443 mg/L
Threshold [1, 9]: 0.013 mg/L
IC50 [1, 10]: 0.414 mg/L
Threshold [1, 10]: 0.06 mg/L

Structure (SMILES): O=C([O-])[O-].[Ca+2] [CaCO3]
Effect (inhibition or stimulation) on thylakoid membranes [1]: Stimulation

Structure (SMILES): CCNc1nc(Cl)nc(NC(C)(C)C#N)n1 [Cyanazine]
IC50 [1, 8]: 0.028 mg/L
Threshold [1, 8]: 0.0006 mg/L
IC50 [1, 9]: 0.009 mg/L
Threshold [1, 9]: 0.002 mg/L
IC50 [1, 10]: 0.135 mg/L
Threshold [1, 10]: 0.013 mg/L
IC50 [1, 11]: 40 mg/L
IC50 [2]: 0.079 mg/mL (≈ 328 µM)
IC50 [3]: 0.31 mg/mL (≈ 1290 µM)

IC50 [1, 8]: >0.1 mg/L
IC50 [1, 9]: >1 mg/L
IC50 [1, 10]: >4 mg/L
Structure (SMILES): CCNc1nc(N)nc(Cl)n1 [Deisopropyl atrazine]
Threshold [1, 8]: >0.1 mg/L
Threshold [1, 9]: 0.2 mg/L
Threshold [1, 10]: 1.26 mg/L

IC50 [1, 8]: 1.1 mg/L
IC50 [1, 9]: 1.08 mg/L
IC50 [1, 10]: 2.31 mg/L
Structure (SMILES): CC(C)Nc1nc(N)nc(Cl)n1 [Desethyl atrazine]
Threshold [1, 8]: 0.2 mg/L
Threshold [1, 9]: 0.013 mg/L
Threshold [1, 10]: 0.2 mg/L

Structure (SMILES): CN(C)C(=O)Nc1ccc(Cl)c(Cl)c1 [Diuron]
IC50 [1, 8]: 0.011 mg/L
Threshold [1, 8]: 0.002 mg/L
IC50 [1, 9]: 0.022 mg/L
Threshold [1, 9]: 0.0006 mg/L
IC50 [1, 10]: 0.02 mg/L
Threshold [1, 10]: <0.001 mg/L
IC50 [1, 11]: 71 mg/L
Threshold [1, 11]: 0.002 mg/L
IC50 [2]: 0.12 mg/mL (≈ 515 µM)
Threshold [2]: 0.01 mg/L
IC50 [3]: 0.13 mg/mL (≈ 558 µM)
Threshold (PSII [4]): 0.0001 mg/L
IC50 (PSII [4]; read-out: IC50 (converted)): 81.5 µM
IC50 (algaes native [5]): 0.012 mg/mL (≈ 51.5 µM)
Threshold (algaes native [5]): 0.002 mg/L
IC50 (algaes native [6]): 0.959 mg/mL (≈ 4110 µM)
IC50 (PSII [7]): 686 µM

Structure (SMILES): OO [H2O2]
Effect (inhibition or stimulation) on thylakoid membranes [1]: Inhibition

Structure (SMILES): [Hg+2] [Hg]
IC50 ([1]; incubation time 15 min): 2.5 mg/L
Threshold limit value ([1]; incubation time 15 min): 0.7 mg/L
IC50 ([1]; incubation time 30 min): 2.0 mg/L
Threshold limit value ([1]; incubation time 30 min): 0.35 mg/L
IC50 ([1]; incubation time 60 min): 2.0 mg/L
Threshold limit value ([1]; incubation time 60 min): 0.35 mg/L
